These results are taken from patent USRE38257E1, “Piperdine derivatives and hypotensives containing the same” (Ajinomoto Co., Inc., priority 1988, dated 2003).

This assay concerns male spontaneously hypertensive rats. Kind of assay: Decrease in systolic blood pressure in spontaneously hypertensive rats after intravenous bolus injection, indirect (tail-cuff) method. The class given is in vivo, rat. The settings on record: for Decrease in systolic blood pressure (mmHg) time after administration (hour) 0.5: 0.5 hour after administration; for Decrease in systolic blood pressure (mmHg) time after administration (hour) 4: 4 hours after administration. The procedure: As test animals, four male spontaneously hypertensive rats (weight 400 to 440 g) that were sufficiently adapted for feeding and in which hypertension was confirmed were used.
Physiological saline aqueous solution containing 2.5% Nicolle and 2.5% ethanol of sample was intravenously administered by bolus injection at a dose of 1 ml per 1 kg of body weight. Systolic blood pressure after administration was measured by the indirect (tail-cuff) method.

Setting [1] is: dose 10 mg/kg i.v. bolus, hydrochloride, 10 mg/kg.

`Cl.Oc1cccc(C=CCN2CCC(=C3c4ccccc4C=Cc4ccccc43)CC2)c1` [Example 367, 4-(5H-Dibenzo[a,d]cyclohepten-5-ylidene)-1-(3-hydroxycinnamyl)piperidine hydrochloride]: where the note is “dose 10 mg/kg i.v. bolus”, the “Decrease in systolic blood pressure (mmHg) time after administration (hour) 0.5” value (“Decrease in systolic blood pressure … (hour) 0.5” for short) is −98 mmHg and the “Decrease in systolic blood pressure (mmHg) time after administration (hour) 4” value (shortened to “Decrease in systolic blood pressure … (hour) 4”) is listed as −63 mmHg.
In the same order, the values of `C1=Cc2ccccc2C(=C2CCN(CCCSc3ccccc3)CC2)c2ccccc21.Cl` [Example 23, 3-(4-(5H-Dibenzo[a,d]cyclohepten-5-ylidene)-1-piperidinyl)-1-phenylthiopropane hydrochloride] are −34 mmHg and 10 mmHg.
In the same order, the values of `Cl.[O-][S+](CCCN1CCC(=C2c3ccccc3C=Cc3ccccc32)CC1)c1ccccc1` (stereo not drawn) [Example 239, 3-(4-(5H-Dibenzo[a,d]cyclohepten-5-ylidene)-1-piperidinyl)-1-propyl phenylsulphoxide hydrochloride] are −68 mmHg and −15 mmHg.
As to `CC(=O)Nc1ccc(CCCN2CCC(=C3c4ccccc4C=Cc4ccccc43)CC2)cc1.Cl.Cl` [Example 249, 1-(4-Acetylaminophenyl)-3-(4-(5H-Dibenzo[a,d]cyclohepten-5-ylidene)-1-piperidinyl)propane dihydrochloride], where the note is “dose 10 mg/kg i.v. bolus”, the “Decrease in systolic blood pressure … (hour) 0.5” value is −121 mmHg and the “Decrease in systolic blood pressure … (hour) 4” value is reported as −100 mmHg.
For the molecule `COc1cc(C=CCN2CCC(=C3c4ccccc4C=Cc4ccccc43)CC2)ccc1OC(C)=O.Cl` [Example 366, 1-(4-Acetoxy-3-methoxycinnamyl)-4-(5H-Dibenzo[a,d]cyclohepten-5-ylidene)-1-piperidine hydrochloride], where the note is “dose 3 mg/kg i.v. bolus”, the “Decrease in systolic blood pressure … (hour) 0.5” value was −152 mmHg and the “Decrease in systolic blood pressure … (hour) 4” value was −113 mmHg.
Take `CC(=O)Nc1ccc(C=CCN2CCC(=C3c4ccccc4CCc4ccccc43)CC2)cc1.Cl.Cl` [Example 352, 1-(4-Acetylaminocinnamyl)-4-(10,11 dihydro-5H-Dibenzo[a,d]cyclohepten-5-ylidene)piperidine dihydrochloride]: under “dose 3 mg/kg i.v. bolus”, the “Decrease in systolic blood pressure … (hour) 0.5” value is −93 mmHg and the “Decrease in systolic blood pressure … (hour) 4” value is given as −60 mmHg.
As for `COc1ccc(CCCN2CCC(=C3c4ccccc4C=Cc4ccccc43)CC2)c(OC)c1.Cl.Cl` [Example 328, 3-(4-(5H-Dibenzo[a,d]cyclohepten-5-ylidene)-1-piperidinyl)-1-(2,4-dimethoxyphenyl)propane dihydrochloride], under “dose 10 mg/kg i.v. bolus”, the “Decrease in systolic blood pressure … (hour) 0.5” value is recorded as −125 mmHg and the “Decrease in systolic blood pressure … (hour) 4” value is listed as −87 mmHg.
For `Cl.N#Cc1ccc(C=CCN2CCC(=C3c4ccccc4C=Cc4ccccc43)CC2)cc1` [Example 346, 1-(4-Cyanocinnamyl)-4-(5H-Dibenzo[a,d]cyclohepten-5-ylidene)-1-piperidine hydrochloride], under “dose 3 mg/kg i.v. bolus”, the “Decrease in systolic blood pressure … (hour) 0.5” value was −142 mmHg and the “Decrease in systolic blood pressure … (hour) 4” value was −121 mmHg.
With `C1=Cc2ccccc2C(=C2CCN(CCCCC3CCCCC3)CC2)c2ccccc21.Cl` [Example 10, 1-Cyclohexyl-4-(4-(5H-dibenzo[a,d]cyclohepten-5-ylidene)-1-piperidinyl)butane hydrochloride], under setting [1], the “Decrease in systolic blood pressure … (hour) 0.5” value was −129 mmHg and the “Decrease in systolic blood pressure … (hour) 4” value is recorded as −21 mmHg.
Regarding `C1=Cc2ccccc2C(=C2CCN(CCCOC3CCCCO3)CC2)c2ccccc21.Cl` (stereo not drawn) [Example 235, 3-(4-(5H-Dibenzo[a,d]cyclohepten-5-ylidene)-1-piperidinyl)-1-propyl(2-tetrahydropyranyl)ether hydrochloride], for the setting “dose 10 mg/kg i.v. bolus”, the “Decrease in systolic blood pressure … (hour) 0.5” value is given as −99 mmHg and the “Decrease in systolic blood pressure … (hour) 4” value is −5 mmHg.
In the same order, the values of “2-(2-4-Dibenzo[a,d]cyclohepten-5-ylidene)-1-piperidinyl)-1-ethyl)-5′,6′-dimethoxy-1-indanone hydrochloride [Example 261]” are −123 mmHg and −11 mmHg.
Regarding `Cl.O=[N+]([O-])c1ccccc1C=CCN1CCC(=C2c3ccccc3C=Cc3ccccc32)CC1` [Example 230, 4-(5H-Dibenzo[a,d]cyclohepten-5-ylidene)-1-(2-nitrocinnamyl)piperidine hydrochloride], under “dose 3 mg/kg i.v. bolus”, the “Decrease in systolic blood pressure … (hour) 0.5” value was −131 mmHg and the “Decrease in systolic blood pressure … (hour) 4” value is reported as −91 mmHg.
Turning to `O=C(c1cccc2ccccc12)N1CCC(=C2c3ccccc3C=Cc3ccccc32)CC1` [Example 213, 4-(5H-Dibenzo[a,d]cyclohepten-5-ylidene)-1-(1-naphthoyl)piperidine], under “dose 10 mg/kg i.v. bolus”, the “Decrease in systolic blood pressure … (hour) 0.5” value is recorded as −82 mmHg and the “Decrease in systolic blood pressure … (hour) 4” value amounted to 3 mmHg.
As for `CCC(CCN1CCC(=C2c3ccccc3C=Cc3ccccc32)CC1)C(=O)c1ccc(OC)c(OC)c1.Cl` (stereo not drawn) [Example 278, 4-(4-(5H-dibenzo[a,d]cyclohepten-5-ylidene)-1-piperidinyl)-2-ethyl-3′,4′-dimethoxybutyrophenone hydrochloride], under “dose 10 mg/kg i.v. bolus”, the “Decrease in systolic blood pressure … (hour) 0.5” value is given as −64 mmHg and the “Decrease in systolic blood pressure … (hour) 4” value came out at 2 mmHg.
With “1-(4-Acetylaminominocinnamyl)-4-(5H-Dibenzo[a,d]thiepiz-5-ylidene)-1-piperidine hydrochloride [Example 327]”, under “dose 3 mg/kg i.v. bolus”, the “Decrease in systolic blood pressure … (hour) 0.5” value is recorded as −10 mmHg and the “Decrease in systolic blood pressure … (hour) 4” value was −43 mmHg.
As for `Cl.O=C(C=Cc1ccccc1)Nc1ccccc1SCCCN1CCC(=C2c3ccccc3C=Cc3ccccc32)CC1` [Example 37, 1-(3-(2-Cinnamoylaminophenylthio)-1-propyl)-4-(5H-dibenzo[a,d]-cyclohepten-5-ylidene)piperidine hydrochloride], where the note is “dose 10 mg/kg i.v. bolus”, the “Decrease in systolic blood pressure … (hour) 0.5” value is −78 mmHg and the “Decrease in systolic blood pressure … (hour) 4” value is on record as −36 mmHg.
For the molecule `Cl.O=C(NCCN1CCCCC1=C1c2ccccc2C=Cc2ccccc21)C1CCCCC1` [Example 243, N-(2-(5H-Dibenzo[a,d]cyclohepten-5-ylidene)-1-piperidinyl)ethyl cyclohexanecarboxamide hydrochloride], where the note is “dose 10 mg/kg i.v. bolus”, the “Decrease in systolic blood pressure … (hour) 0.5” value is recorded as −111 mmHg and the “Decrease in systolic blood pressure … (hour) 4” value is listed as −31 mmHg.
In the same order, the values of `Cl.O=[N+]([O-])c1cccc(C=CCN2CCC(=C3c4ccccc4C=Cc4ccccc43)CC2)c1` [Example 306, 4-(5H-Dibenzo[a,d]cyclohepten-5-ylidene)-1-(3-nitrocinnamyl)piperidine hydrochloride] are −138 mmHg and −37 mmHg.
Turning to `Cl.O=[N+]([O-])c1cccc2c1CC(CCN1CCC(=C3c4ccccc4C=Cc4ccccc43)CC1)C2` (stereo not drawn) [Example 354, 2-(2-(4-(5H-Dibenzo[a,d]cyclohepten-5-ylidene)-1-piperidinyl)-1-ethyl)-4′-nitroindan hydrochloride], for the setting “dose 3 mg/kg i.v. bolus”, the “Decrease in systolic blood pressure … (hour) 0.5” value is on record as −89 mmHg and the “Decrease in systolic blood pressure … (hour) 4” value is on record as −8 mmHg.
Take `Cl.N#CCCCN1CCC(=C2c3ccccc3C=Cc3ccccc32)CC1` [Example 165, 1-Cyano-3-[4-(5H-dibenzo[a,d]cyclohepten-5-ylidene)-1-piperidinyl)propane hydrochloride]: under setting [1], the “Decrease in systolic blood pressure … (hour) 0.5” value is given as −22 mmHg and the “Decrease in systolic blood pressure … (hour) 4” value was found to be 12 mmHg.
`COC(=O)C1(CCCCN2CCC(=C3c4ccccc4C=Cc4ccccc43)CC2)CCCCC1.Cl` [Example 219, 1-(4-(4-(5H-Dibenzo[a,d]cyclohepten-5-ylidene)-1-piperidinyl)-butyl)-1-methoxycarbonylcyclohexane hydrochloride]: for the setting “dose 10 mg/kg i.v. bolus”, the “Decrease in systolic blood pressure … (hour) 0.5” value is given as −104 mmHg and the “Decrease in systolic blood pressure … (hour) 4” value was −33 mmHg.
For the molecule `CC(=O)N1CCC(CCCN2CCC(=C3c4ccccc4C=Cc4ccccc43)CC2)CC1.Cl` [Example 308, 1-(N-acetyl-4-piperidinyl)-3-(4-(5H-dibenzo[a,d]cyclohepten-5-ylidene)-1-piperidinyl)propane hydrochloride], under “dose 3 mg/kg i.v. bolus”, the “Decrease in systolic blood pressure … (hour) 0.5” value is reported as −27 mmHg and the “Decrease in systolic blood pressure … (hour) 4” value was −5 mmHg.
With `Cl.Nc1cccc2c1CC(CN1CCC(=C3c4ccccc4C=Cc4ccccc43)CC1)C2` (stereo not drawn) [Example 330, 4′-Amino-2-(4-(5H-Dibenzo[a,d]cyclohepten-5-ylidene)-1-piperidinyl)methylindan hydrochloride], for the setting “dose 10 mg/kg i.v. bolus”, the “Decrease in systolic blood pressure … (hour) 0.5” value is reported as −93 mmHg and the “Decrease in systolic blood pressure … (hour) 4” value is −25 mmHg.
For `C1=Cc2ccccc2C(=C2CCN(CCCc3cccnc3)CC2)c2ccccc21.Cl.Cl` [Example 270, 3-(4-(5H-Dibenzo[a,d]cyclohepten-5-ylidene)-1-piperidinyl)-1-(3-pyridyl)propane dihydrochloride] the same measures were −18 mmHg and 2 mmHg.
